Key:
[1] = tested on: Beta vulgaris wild-type and W574L-mutant (SB574TL) ALS; assay: ALS enzyme activity measurements, E. coli expressed enzyme; type: biochemical; conditions: crude protein extract, from pI50-values
Procedure: The coding sequence of a Beta vulgaris wild-type and a mutant B. vulgaris plant is cloned into, for example, Novagen pET-32a(+) vectors and the vectors are transformed into, for example, Escherichia coli AD494 according to the instructions of the manufacturer. Bacteria are preferably grown at 37° C. in medium under selection pressure such as in LB-medium containing 100 mg/l carbenicillin and 25 mg/l kanamycin, are induced with, for example, 1 mM isopropyl-β-D-thiogalactopyranoside at an OD600 of preferably about 0.6, cultivated for about 16 hours at preferably 18° C. and harvested by centrifugation. Bacterial pellets are resuspended in 100 mM sodium phosphate buffer pH 7.0 containing 0.1 mM thiamine-pyrophosphate, 1 mM MgCl2, and 1 μM FAD at a concentration of 1 gram wet weight per 25 ml of buffer and disrupted by sonification. The crude protein extract obtained after centrifugation is used for ALS activity measurements.
ALS assays are then carried out in, for example, 96-well microtiter plates using a modification of the procedure described by Ray (1984), Plant Physiol., 75, 827-831. The reaction mixture contains preferably 20 mM potassium phosphate buffer pH 7.0, […], 0.45 mM thiamine-pyrophosphate, 0.45 mM MgCl2, 9 μM FAD, ALS enzyme and various concentrations of ALS inhibitors in a final volume of about 90 μl. […]

[2] = tested on: ALS in leaf extracts of wild type sugar beets and SB574TL; assay: ALS enzyme activity measurements from plant leaf extracts; type: biochemical, Beta vulgaris
From the text: When plants are used, ALS activity is preferably determined in cell extracts or leaf extracts of wild type and B. vulgaris cell extracts or leaf extracts of the obtained mutant in the presence of various concentrations of ALS-inhibitor herbicides, preferably sulfonylurea herbicides or sulfonylamino-carbonyltriazolinone herbicides, more preferably in the presence of various concentrations of the ALS inhibitor herbicide “foramsulfuron”. ALS is thus preferably extracted from sugar beet leaves or sugar beet tissue cultures as described by Ray (1984) in Plant Physiol 75:827-831.
ALS was extracted from sugar beet leaves or sugar beet tissue cultures as described by Ray (1984), Plant Physiol 75:827-831.
ALS activity was determined in leaf extracts of wild type and sugar beets and leaf extracts of the obtained SB574TL in presence of various concentrations of foramsulfuron as described in Example 4.
In total, the mutant enzyme was at least 2000 times less sensitive against the ALS inhibitor foramsulfuron than the wild type enzyme.

[3] = tested on: wild type sugar beet plants; assay: Herbicide treatment of regenerated plants from wild type cell cultures (greenhouse); type: in vivo, Beta vulgaris; conditions: lowest doses tested (range 7-70 g a.i./ha foramsulfuron, 1-10 g a.i./ha iodosulfuron-methyl-sodium, mixtures 7:1)
From the text: (§1) Within 4-12 weeks the shoots formed roots and then they were transferred into sterile plant containers filled with wet, sterilized perlite, watered with half strength MS inorganic ingredients. Alternatively the plantlets were transferred directly from the agar solidified medium in a perlite containing soil mixture in the greenhouse. During the first 10-15 days after transfer into soil containing substrate the plants were kept in an environment with high air humidity. During and after they were weaned to normal greenhouse air humidity regimes the plants were kept in the greenhouse under artificial light (12 h) at 20+−3° C./15+−2° C. day/night temperatures.
(§2) 3-5 weeks later, the regenerated plants from the above obtained foramsulfuron tolerant cell culture (SB574TL) as well as from the wild type cell cultures were treated with foramsulfuron, iodosulfuron-methyl-sodium (CAS RN […]) and a mixture of both active ingredients. The herbicide doses tested were equivalent to 7-70 g a.i./ha for foramsulfuron and 1-10 g a.i./ha for iodosulfuron-methyl-sodium.

[4] = tested on: regenerated plants from SB574TL cell culture; assay: Herbicide treatment of regenerated plants from the foramsulfuron tolerant cell culture (greenhouse); type: in vivo, Beta vulgaris; conditions: highest doses tested (range 7-70 g a.i./ha foramsulfuron, 1-10 g a.i./ha iodosulfuron-methyl-sodium, mixtures 7:1)
From the text: as §1, §2

[5] = tested on: SB574TL sugar beet cell colony; assay: Growth of selected mutant cell colony (clone SB574TL) on foramsulfuron medium; type: cell-based, Beta vulgaris; conditions: 3×10^−7 M and even 3×10^−6 M foramsulfuron
From the text: When this callus type was exposed to 10^−9 M of the sulfonylurea foramsulfuron (CAS RN 173159-57-4), the cells survived, but produced less than 50% of the biomass of their siblings on medium devoid of the inhibitor. On medium containing 3×10^−8 M foramsulfuron no growth was detectable. For large scale mutant selection experiments 10^−7 M foramsulfuron was chosen. Surviving and growing cell colonies were numbered and transferred after 4-6 weeks onto fresh medium containing 3×10^−7 M of the inhibitor. One of these cell colonies was able to grow not only at this concentration of the inhibitor but even in presence of 3×10^−6 M of foramsulfuron. From this clone (SB574TL), shoots were regenerated in presence of the ALS-inhibitor herbicide and then the shoots were transferred to MS medium containing 0.05 mg/l Naphthalene acetic acid (NAA).
When this callus type was exposed to 10^−9 M of the ALS inhibitor herbicide foramsulfuron (belonging to the sulfonylurea subclass, see above), the cells survived, but produced less than 50% of the biomass of their siblings on medium devoid of the inhibitor. On medium containing 3×10^−8 M foramsulfuron no growth was detectable. For large scale mutant selection experiments, 10^−7 M foramsulfuron was chosen. Surviving and growing cell colonies were numbered and transferred after 4-6 weeks onto fresh medium containing 3×10^−7 M of the inhibitor. […]

[6] = tested on: sugar beet calli (diploid genotype 7T9044); assay: cells; type: cell-based, Beta vulgaris
Procedure: Sugar beet cell cultures were initiated from seedlings of a diploid sugar beet genotype 7T9044 (as, for example, described by Alexander Dovzhenko, PhD Thesis, Title: “Towards plastid transformation in rapeseed (Brassica napus L.) and sugarbeet (Beta vulgaris L.)”, Ludwig-Maximilians-Universität München, Germany, 2001). Sugar beet seeds were immersed for 60 seconds in 70% ethanol, then rinsed twice in sterile water with 0.01% detergent and then incubated for 1-4 hours in 1% NaOCl bleach. Thereafter the seeds were washed 3 times with sterile H2O and the seeds were stored in sterile water overnight at 4° C. The embryos were then isolated using forceps and scalpel.
The freshly prepared embryos were immersed in 0.5% NaOCl for 30 min and then washed 3 times in sterile water. After the last washing step they were placed on hormone free MS agar medium (Murashige and Skoog (1962), Physiol. Plantarum, 15, 473-497). Those embryos which developed into sterile seedlings were used for the initiation of regenerable sugar beet cell cultures.
Cotyledons as well as hypocotyls were cut into 2-5 mm long segments and then cultivated on agar (0.8%) solidified MS medium containing either 1 mg/l Benzylaminopurine (BAP) or 0.25 mg/l Thidiazuron (TDZ). 4 weeks later the developing shoot cultures were transferred onto fresh agar medium of the same composition and then sub-cultured in monthly intervals. […]

**Q.** Which “sensitivity of mutant enzyme relative to wild type enzyme (times less sensitive)” value [1] does the source give for COc1cc(OC)nc(NC(=O)NS(=O)(=O)c2cc(NC=O)ccc2C(=O)N(C)C)n1 [foramsulfuron] here?
**A.** at least 2000 times

**Q.** What about the “sensitivity of mutant enzyme relative to wild type enzyme (times less sensitive)” value [2] of the same molecule?
**A.** at least 2000 times

**Q.** And the “effect on wild type plants” value [3]?
**A.** killed

**Q.** What about the “tolerance of regenerated plants to herbicide” value [4] of the same molecule?
**A.** tolerated even the highest herbicide doses

**Q.** And the “growth of mutant cell colony” value [5]?
**A.** able to grow

**Q.** And the “cell survival of callus” value ([6]; 10^−9 M foramsulfuron in medium)?
**A.** survived

**Q.** What about the viability at 0.001 µM ([6]; Beta vulgaris, read-out: biomass relative to siblings on medium devoid of the inhibitor) of the same molecule?
**A.** < 50%

**Q.** COC(=O)c1ccc(I)cc1S(=O)(=O)[N-]C(=O)Nc1nc(C)nc(OC)n1.[Na+] [iodosulfuron-methyl-sodium] was tested. Which “effect on wild type plants” value [3] did it give?
**A.** killed

**Q.** What about the “tolerance of regenerated plants to herbicide” value [4] of the same molecule?
**A.** tolerated even the highest herbicide doses
